{"source": "patent US20230255974A1", "about": "“USE OF THYROMIMETICS FOR THE TREATMENT OF CANCER” (THE UNIVERSITY OF VERMONT, priority 2020, published 2023)", "key": {"MCF7": {"system": "MCF7", "test": "Mammosphere growth, Luminal A breast cancer cells", "format": "cell-based", "description": "Data are mean+/−SD; * indicates p<0.05 determined by t-test."}, "MDA-MB-453 cells": {"system": "MDA-MB-453 cells", "test": "Relative cell growth by cell counting, HER2+ breast cancer cells", "format": "cell-based", "settings": "MDA-MB-453, 10 nM GC-1, 8 days", "procedure": "A similar study was then performed in MDA-MB-453 cells, human epidermal growth factor positive-HER2+, breast cancer cells."}, "[1]": {"system": "SW1736, 8505C, OCUT2, and KTC-2 cells", "test": "Thyrosphere outgrowth, unmodified ATC cell lines", "format": "cell-based, human", "settings": "inhibitor three days before plating, or 10 nM GC-1 for 7 days", "protocol": "(§1) Tumorsphere Assay. Cancer stem cell tumorspheres formed from ATC cells (thyrospheres) were used to assess self-renewal and sphere-forming efficiency. For generating thyrospheres, adherent monolayer cells were dissociated with Trypsin-EDTA, and single cells were moved to round-bottom ultra-low attachment 24-well plates at a density of 1000 cells/well (Corning). […] Where indicated, adherent cells were treated with 0.5 μM Buparlisib, 0.5 μM Alpelisib, 1 nM Palbociclib, 5 μM Sorafenib, or vehicle for 72 hours prior to thyrosphere-forming assay. […] Thyrospheres grew for seven days and were then counted with an inverted microscope."}, "[2]": {"system": "SW1736, 8505C, OCUT2, and KTC-2 cells", "settings": "GC-1 concentrations higher than 10^-8M"}, "[3]": {"system": "SW1736 cells (SW-EV, SW-TRβ)", "test": "Apoptosis assay (PARP1 and caspase 3 cleavage, immunoblot)", "format": "cell-based, human", "settings": "SW-TRβ", "excerpt": "Immunoblot Analysis. […] Proteins were resolved by polyacrylamide gel electrophoresis on 10% sodium dodecyl sulfate gels EC60752 (Life Technologies) and immobilized onto nitrocellulose membranes (GE Healthcare) by electroblot (Bio-Rad Laboratories). Specific proteins were detected by immunoblotting with the indicated antibodies (Table 4); immunoreactive proteins were detected by enhanced chemiluminescence (Thermo Scientific) on a ChemiDoc XRS+ (Bio-Rad Laboratories).\nApoptosis Assay. Cells were plated at a density of 50,000 cells/well and treated with vehicle (1 N NaOH) or 10^−8 M T3. After 5 days the cells were lysed for analysis by immunoblot. Poly (ADP-ribose) polymerase 1 (PARP1) and Caspase 3 cleavage were assessed to measure apoptotic signaling.\nImmunoblot Analysis. […] Proteins were resolved by polyacrylamide gel electrophoresis on 10% sodium dodecyl sulfate gels EC60752 (Thermo Fisher Scientific) and immobilized onto nitrocellulose membranes (GE Healthcare, Chicago, Ill., USA) by electroblot (Bio-Rad Laboratories, Hercules, Calif., USA). Specific proteins were detected by immunoblotting with the indicated antibodies (Table 4); immunoreactive proteins were detected by enhanced chemiluminescence (Thermo Scientific) on a ChemiDoc XRS+ (Bio-Rad Laboratories)."}, "[4]": {"system": "SW1736, 8505C, OCUT2, and KTC-2 cells", "test": "Cell migration by scratch (wound healing) assay, inhibitors with or without GC-1", "format": "cell-based, human", "settings": "GC-1 10^−8M or inhibitor alone", "procedure": "Migration Assay. Cell migration was determined by wound healing assay. Cells were plated and allowed to grow to 100% confluency. Four hours prior to scratching, cells were treated with […] Mitomycin C. A scratch was performed with a P1000 pipette tip and debris was washed away with PBS. […] Images were obtained at 0, 16, 24, 48, and 72 hours or until 100% wound closure, depending on the cell type. The wound closure was measured using the ImageJ macro “Wound Healing Tool” (https://github.com/MontpellierRessourcesImagerie/imagej_macros_and_scripts/wiki/Wound-Healing-Tool). Percent closure was calculated relative to the area of the initial scratch."}, "[5]": {"system": "SW1736 cells (SW-EV, SW-TRβ)", "format": "cell-based, human", "settings": "for ATC cell death: GC-1 10^−8 M; for reduction in cell growth (AUC of growth curve): GC-1 10^−8M, 4 days"}, "[6]": {"system": "MDA-MB-468 cells (EV, TRβ)", "settings": "triple negative breast cancer cells with low TRβ expression", "procedure": "Triple negative breast cancer were examined next. […] TNBC cancers and other advanced solid tumors have lower endogenous levels of expression of TRβ. […] Cell migration was measured by scratch assay (FIG. 28). […] Data are mean+/−SD; *indicates p<0.05 determined by t-test."}, "KTC-2": {"system": "KTC-2", "test": "Xenograft model of anaplastic thyroid tumor", "format": "in vivo, SCID female mice", "settings": "KTC-2 subcutaneous xenograft, GC-1 0.3 mg/Kg, Buparlisib 5 mg/Kg, approximately 6 week study", "procedure": "Doses of Buparlisib tested in xenograft studies range from 5 mg/Kg to 20 mg/Kg.\nDrugs were prepared at concentrations suitable for intraperitoneal (i.p.) injection of 5 μL/g body weight. […] Drug stocks were prepared by dissolving sobetirome and Sob-AM2 at 1 mg/mL in dimethyl sulfoxide (DMSO). […] Vehicles were prepared with 20% DMSO in saline.”\nBuparlisib was used as a 5 mg/kg buparlisib treatment (recommended by Novartis). Buparlisib suspension was prepared in 0.5% methyl cellulose and 0.5% Tween20.\nTumors were established by subcutaneous injection of 5×10^6 tumor cells in 100 μL of phosphate-buffered saline into the flank region into SCID female mice. Thyroid cancer occurs in females ˜4× more often than in males. As funding is available; both males and females will be tested.\nThe study was approximately a 6 week study. Tumor mass was measured, and tumors and tissues were saved for IHC and RNAseq."}, "[7]": {"system": "SW1736 cells (SW-EV, SW-TRβ)", "settings": "SW-TRβ1, GC-1 10^−8M", "protocol": "as §1"}}, "note": "Read-outs that look alike come from different tables or passages of the source."}
{"compound": "Cc1nc(NC(=O)N2CCC[C@H]2C(N)=O)sc1-c1ccnc(C(C)(C)C(F)(F)F)c1", "note": "[Alpelisib, (2S)-1-N-[4-methyl-5-[2-(1,1,1-trifluoro-2-methylpropan-2-yl)pyridin-4-yl]-1,3-thiazol-2-yl]pyrrolidine-1,2-dicarboxamide]", "values": [{"measurement": "effect of inhibitor in the presence of GC-1", "setting": "MCF7; MCF7, 10 nM GC-1, 5 days", "result": "enhanced the effect"}, {"measurement": "cell growth, inhibitor in the presence of GC-1", "setting": "MDA-MB-453 cells", "result": "enhanced the effect of Alpelisib in reducing cell growth"}]}
{"compound": "CNC(=O)c1cc(Oc2ccc(NC(=O)Nc3ccc(Cl)c(C(F)(F)F)c3)cc2)ccn1", "note": "[Sorafenib, 4-[4-[[4-chloro-3-(trifluoromethyl)phenyl]carbamoylamino]phenoxy]-N-methylpyridine-2-carboxamide]", "values": [{"measurement": "thyrosphere formation/outgrowth, agent alone", "setting": "[1]", "result": "most effective overall"}]}
{"compound": "Cc1cc(OCC(=O)O)cc(C)c1Cc1ccc(O)c(C(C)C)c1", "note": "[GC-1, 2-[4-[(4-hydroxy-3-propan-2-ylphenyl)methyl]-3,5-dimethylphenoxy]acetic acid]", "values": [{"measurement": "cell toxicity", "setting": "[2]", "result": "cause cell toxicity"}, {"measurement": "mammosphere formation", "setting": "MCF7; MCF7, 10 nM GC-1 alone", "result": "could reduce mammosphere formation"}, {"measurement": "cleaved PARP and cleaved caspase 3", "setting": "[3]; GC-1, 5 days", "result": "significantly increased the presence of cleaved PARP and cleaved caspase 3"}, {"measurement": "apoptosis (cleaved PARP and caspase)", "setting": "[3]; five days", "result": "induces apoptosis"}, {"measurement": "wound closure, agent alone", "setting": "[4]", "result": "able to prevent wound closure of all tumor cell lines with similar success as each inhibitor alone"}, {"measurement": "ATC cell death", "setting": "[5]; SW1736 with endogenous TRβ (EV)", "result": "induces ATC cell death"}, {"measurement": "reduction in cell growth (AUC of growth curve)", "setting": "[5]; SW-EV", "result": 50, "unit": "%"}, {"measurement": "ATC cell death", "setting": "[5]; SW-TRβ (lentiviral transduction)", "result": "amplified with higher levels of TRβ"}, {"measurement": "reduction in cell growth (AUC of growth curve)", "setting": "[5]; SW-TRβ", "result": 75, "unit": "%"}, {"measurement": "cell migration", "setting": "[6]", "result": "able to slow migration"}, {"measurement": "metastases", "setting": "KTC-2", "result": "no visually detectable metastases"}, {"measurement": "tumor vascularization", "setting": "KTC-2", "result": "minimal vascularization"}, {"measurement": "reduction in thyrosphere formation", "setting": "[7]", "result": "greater than 80%"}]}
